# How the values were obtained:
# [1] = system: SW-620; test: cells; conditions: Homo sapiens, SW-620, 96 h
# [2] = biological target: T1, Dual specificity tyrosine-phosphorylation-regulated kinase 1A (Homo sapiens, UniProt Q13627); test: Inhibition of DYRK1A (unknown origin)
# [3] = biological target: Cyclin-dependent kinase 9 (Homo sapiens, UniProt P50750); test: Inhibition of human full-length N-terminal GST-fused CDK9 (1 to 372 residues) expressed in baculovirus expression system using MBP as substrate after 100 mins by TR-FRET assay
# Chain of Cyclin-dependent kinase 9 (P50750 whole entry, the tested form may be a part): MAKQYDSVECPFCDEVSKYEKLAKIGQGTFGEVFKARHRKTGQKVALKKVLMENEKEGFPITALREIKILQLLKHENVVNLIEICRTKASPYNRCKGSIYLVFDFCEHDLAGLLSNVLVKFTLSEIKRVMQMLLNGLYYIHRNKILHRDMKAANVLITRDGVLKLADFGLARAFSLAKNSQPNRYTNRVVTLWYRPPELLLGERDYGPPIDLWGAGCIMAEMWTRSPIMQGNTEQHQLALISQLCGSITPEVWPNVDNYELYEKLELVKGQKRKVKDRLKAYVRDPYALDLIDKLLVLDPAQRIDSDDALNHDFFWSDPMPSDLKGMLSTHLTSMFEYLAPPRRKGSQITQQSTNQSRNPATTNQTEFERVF
# [4] = biological target: T2, Dual specificity tyrosine-phosphorylation-regulated kinase 1A (Rattus norvegicus, UniProt Q63470); test: Inhibition of rat recombinant GST-fused DYRK1A expressed in Escherichia coli in presence of [gamma-33P]ATP after 30 mins by scintillation counting analysis
# [5] = biological target: T3, Dual specificity tyrosine-phosphorylation-regulated kinase 1B (Homo sapiens, UniProt Q9Y463); test: Inhibition of DYRK1B (unknown origin)
# T3 sequence (Q9Y463 whole entry): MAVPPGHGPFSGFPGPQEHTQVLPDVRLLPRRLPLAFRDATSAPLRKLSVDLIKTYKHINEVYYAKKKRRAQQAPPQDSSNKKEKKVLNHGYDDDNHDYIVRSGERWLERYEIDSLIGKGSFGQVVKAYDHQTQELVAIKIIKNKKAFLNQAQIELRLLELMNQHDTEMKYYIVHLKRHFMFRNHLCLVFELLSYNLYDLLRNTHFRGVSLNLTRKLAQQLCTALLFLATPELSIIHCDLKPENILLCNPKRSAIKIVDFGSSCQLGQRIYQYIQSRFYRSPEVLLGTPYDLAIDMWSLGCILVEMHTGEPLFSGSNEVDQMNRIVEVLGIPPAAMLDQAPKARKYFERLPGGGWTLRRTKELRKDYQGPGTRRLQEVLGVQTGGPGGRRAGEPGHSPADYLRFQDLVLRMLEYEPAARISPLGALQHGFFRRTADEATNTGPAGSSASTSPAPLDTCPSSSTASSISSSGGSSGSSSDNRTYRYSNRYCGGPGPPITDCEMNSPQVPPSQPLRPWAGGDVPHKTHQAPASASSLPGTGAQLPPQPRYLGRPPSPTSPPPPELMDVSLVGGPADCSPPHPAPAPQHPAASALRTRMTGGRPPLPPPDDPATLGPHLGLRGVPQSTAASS
# [6] = biological target: T1, Dual specificity tyrosine-phosphorylation-regulated kinase 1A; test: Inhibition of GST-tagged DYRK1A (unknown origin) expressed in Escherichia coli DH5alpha at 1 uM using RRRFRPASPLRGPPK as substrate after 30 mins by kinase-glo luminescence assay relative to control
# [7] = biological target: T1, Dual specificity tyrosine-phosphorylation-regulated kinase 1A; test: Inhibition of GST-tagged DYRK1A (unknown origin) expressed in Escherichia coli DH5alpha using RRRFRPASPLRGPPK as substrate after 30 mins by kinase-glo luminescence assay
# [8] = biological target: Casein kinase 2 (Rattus norvegicus, UniProt P19139); test: Inhibition of rat liver CK2 using RRRADDSDDDDD as substrate after 10 mins in presence of [gamma-33P]ATP
# Chain of Casein kinase 2 (P67874 whole entry): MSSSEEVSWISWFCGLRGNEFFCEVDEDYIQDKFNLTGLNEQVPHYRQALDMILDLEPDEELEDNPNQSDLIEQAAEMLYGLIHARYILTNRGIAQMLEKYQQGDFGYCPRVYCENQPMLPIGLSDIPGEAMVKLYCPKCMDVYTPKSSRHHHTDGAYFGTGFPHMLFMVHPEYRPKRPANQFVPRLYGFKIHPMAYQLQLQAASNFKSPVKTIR
# Chain of Casein kinase 2 (P19139 whole entry): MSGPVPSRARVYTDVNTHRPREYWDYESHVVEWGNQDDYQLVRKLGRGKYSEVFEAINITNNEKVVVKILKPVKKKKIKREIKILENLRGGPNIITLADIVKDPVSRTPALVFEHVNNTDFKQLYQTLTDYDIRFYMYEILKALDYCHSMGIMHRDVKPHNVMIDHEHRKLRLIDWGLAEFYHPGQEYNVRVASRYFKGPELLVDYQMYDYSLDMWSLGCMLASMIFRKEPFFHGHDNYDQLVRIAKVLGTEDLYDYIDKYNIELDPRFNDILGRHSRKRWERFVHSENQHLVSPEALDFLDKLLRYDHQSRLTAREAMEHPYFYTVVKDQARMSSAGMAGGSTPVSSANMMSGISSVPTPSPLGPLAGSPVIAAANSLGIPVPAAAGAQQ
# [9] = biological target: T1, Dual specificity tyrosine-phosphorylation-regulated kinase 1A; test: Inhibition of DYRK1A (unknown origin) at 10 uM relative to control
# [10] = biological target: T2, Dual specificity tyrosine-phosphorylation-regulated kinase 1A; test: Inhibition of rat DYRK1A using KKISGRLSPIMTEQ as substrate in presence of [gamma-33P]ATP after 30 mins by scintillation counting analysis
# [11] = biological target: T1, Dual specificity tyrosine-phosphorylation-regulated kinase 1A; test: Inhibition of DYRK1A (unknown origin) by cell-based assay
# [12] = biological target: T1, Dual specificity tyrosine-phosphorylation-regulated kinase 1A; test: Inhibition of DYRK1A (unknown origin) at 50 uM
# [13] = biological target: T4, MAP kinase-activated protein kinase 5 (Homo sapiens) (UniProt Q8IW41); test: Inhibition of PRAK (unknown origin) at 50 uM
# T4 sequence (whole entry): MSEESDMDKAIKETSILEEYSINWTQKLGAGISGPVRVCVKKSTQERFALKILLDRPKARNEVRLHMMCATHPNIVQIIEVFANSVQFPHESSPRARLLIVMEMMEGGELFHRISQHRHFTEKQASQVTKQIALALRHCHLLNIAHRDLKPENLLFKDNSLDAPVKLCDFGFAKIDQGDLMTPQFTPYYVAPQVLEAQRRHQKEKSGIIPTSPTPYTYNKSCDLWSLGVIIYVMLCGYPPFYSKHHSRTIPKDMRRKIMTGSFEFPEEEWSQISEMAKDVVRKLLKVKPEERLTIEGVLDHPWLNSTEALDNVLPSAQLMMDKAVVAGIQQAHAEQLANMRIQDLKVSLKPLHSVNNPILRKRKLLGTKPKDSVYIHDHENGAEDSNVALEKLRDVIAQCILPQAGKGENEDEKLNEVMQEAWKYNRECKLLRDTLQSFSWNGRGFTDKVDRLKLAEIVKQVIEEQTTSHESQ
# [14] = biological target: Aurora kinase B (Homo sapiens) (UniProt Q96GD4); test: Inhibition of aurora B (unknown origin) at 50 uM
# Chain of Aurora kinase B (Homo sapiens) (Q96GD4 whole entry): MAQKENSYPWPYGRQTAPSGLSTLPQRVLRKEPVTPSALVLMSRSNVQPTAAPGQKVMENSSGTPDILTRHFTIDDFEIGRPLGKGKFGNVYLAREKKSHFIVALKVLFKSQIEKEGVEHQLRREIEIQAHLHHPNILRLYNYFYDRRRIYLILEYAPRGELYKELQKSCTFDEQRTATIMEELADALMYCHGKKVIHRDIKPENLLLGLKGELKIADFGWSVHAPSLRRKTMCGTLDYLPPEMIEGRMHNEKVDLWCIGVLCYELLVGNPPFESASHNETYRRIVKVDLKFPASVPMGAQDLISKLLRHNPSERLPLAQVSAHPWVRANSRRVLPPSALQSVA
# [15] = biological target: T3, Dual specificity tyrosine-phosphorylation-regulated kinase 1B; test: Inhibition of human recombinant full length N-terminal GST-tagged DYRK1B expressed in baculovirus expression system using DYRKtide-F as substrate after 1 hr by electrophoretic analysis
# [16] = biological target: T1, Dual specificity tyrosine-phosphorylation-regulated kinase 1A; test: Inhibition of human recombinant full length GST-tagged DYRK1A expressed in baculovirus expression system assessed as decrease in tau phosphorylation at S396 preincubated for 10 mins followed by tau addition by Western blot analysis
# [17] = Inhibition of CLK (unknown origin); set-up: species or system Homo sapiens
# [18] = biological target: Glycogen synthase kinase-3 (Homo sapiens, UniProt P49840+P49841); test: Inhibition of GSK-3 (unknown origin); format: protein assay
# [19] = biological target: Dual specificity protein kinase CLK2 (Homo sapiens, UniProt P49760); test: Inhibition of CLK2 (unknown origin)
# Chain of Dual specificity protein kinase CLK2 (P49760 whole entry): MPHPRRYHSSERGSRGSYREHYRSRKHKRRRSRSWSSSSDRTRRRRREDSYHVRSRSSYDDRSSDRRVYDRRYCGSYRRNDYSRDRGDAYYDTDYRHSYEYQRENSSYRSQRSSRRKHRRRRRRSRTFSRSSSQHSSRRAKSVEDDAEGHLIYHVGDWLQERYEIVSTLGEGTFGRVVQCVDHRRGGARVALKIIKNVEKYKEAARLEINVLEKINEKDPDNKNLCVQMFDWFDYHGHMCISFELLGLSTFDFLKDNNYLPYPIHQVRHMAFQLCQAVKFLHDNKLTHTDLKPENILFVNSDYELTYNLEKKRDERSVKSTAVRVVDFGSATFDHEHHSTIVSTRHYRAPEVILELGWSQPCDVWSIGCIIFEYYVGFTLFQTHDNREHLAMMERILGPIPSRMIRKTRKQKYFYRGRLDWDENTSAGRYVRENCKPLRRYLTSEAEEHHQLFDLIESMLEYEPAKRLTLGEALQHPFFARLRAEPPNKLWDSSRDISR
# [20] = biological target: T5, Dual specificity tyrosine-phosphorylation-regulated kinase 2 (Homo sapiens, UniProt Q92630); test: Inhibition of DYRK2 (unknown origin)
# T5 sequence (Q92630 whole entry): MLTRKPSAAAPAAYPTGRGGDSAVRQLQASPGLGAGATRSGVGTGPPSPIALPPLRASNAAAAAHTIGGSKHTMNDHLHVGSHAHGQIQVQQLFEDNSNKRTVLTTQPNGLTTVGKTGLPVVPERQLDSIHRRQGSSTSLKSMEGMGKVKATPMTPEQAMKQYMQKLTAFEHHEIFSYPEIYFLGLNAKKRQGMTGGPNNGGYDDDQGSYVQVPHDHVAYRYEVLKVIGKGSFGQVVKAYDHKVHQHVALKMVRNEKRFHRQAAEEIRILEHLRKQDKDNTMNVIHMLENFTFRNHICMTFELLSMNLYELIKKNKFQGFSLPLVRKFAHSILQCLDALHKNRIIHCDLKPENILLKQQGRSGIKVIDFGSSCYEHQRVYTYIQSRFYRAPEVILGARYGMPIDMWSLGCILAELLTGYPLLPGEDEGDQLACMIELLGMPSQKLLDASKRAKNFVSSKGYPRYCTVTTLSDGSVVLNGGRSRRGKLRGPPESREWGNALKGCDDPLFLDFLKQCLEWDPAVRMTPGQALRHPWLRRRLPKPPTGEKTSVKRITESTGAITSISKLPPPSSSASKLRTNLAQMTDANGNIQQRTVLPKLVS
# [21] = biological target: Dual specificity protein kinase CLK1 (Homo sapiens, UniProt P49759); test: Inhibition of CLK1 (unknown origin)
# Chain of Dual specificity protein kinase CLK1 (P49759 whole entry): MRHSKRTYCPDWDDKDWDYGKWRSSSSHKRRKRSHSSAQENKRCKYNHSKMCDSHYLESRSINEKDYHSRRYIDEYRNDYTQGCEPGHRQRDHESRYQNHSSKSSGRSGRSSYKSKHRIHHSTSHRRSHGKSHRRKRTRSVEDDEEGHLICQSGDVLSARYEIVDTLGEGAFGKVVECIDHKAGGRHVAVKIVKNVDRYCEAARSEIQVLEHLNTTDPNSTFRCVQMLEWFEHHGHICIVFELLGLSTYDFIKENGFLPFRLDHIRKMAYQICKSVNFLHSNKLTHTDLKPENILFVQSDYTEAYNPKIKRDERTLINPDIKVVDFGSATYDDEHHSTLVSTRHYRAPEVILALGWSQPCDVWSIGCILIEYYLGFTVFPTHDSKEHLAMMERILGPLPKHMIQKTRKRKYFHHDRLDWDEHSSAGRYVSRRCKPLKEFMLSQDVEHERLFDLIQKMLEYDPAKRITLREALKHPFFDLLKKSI
# [22] = biological target: T6, Amine oxidase [flavin-containing] A (Homo sapiens, UniProt P21397); test: Inhibition of human recombinant MAO-A after 1 hr by MAO-Glo assay
# T6 sequence (P21397 whole entry): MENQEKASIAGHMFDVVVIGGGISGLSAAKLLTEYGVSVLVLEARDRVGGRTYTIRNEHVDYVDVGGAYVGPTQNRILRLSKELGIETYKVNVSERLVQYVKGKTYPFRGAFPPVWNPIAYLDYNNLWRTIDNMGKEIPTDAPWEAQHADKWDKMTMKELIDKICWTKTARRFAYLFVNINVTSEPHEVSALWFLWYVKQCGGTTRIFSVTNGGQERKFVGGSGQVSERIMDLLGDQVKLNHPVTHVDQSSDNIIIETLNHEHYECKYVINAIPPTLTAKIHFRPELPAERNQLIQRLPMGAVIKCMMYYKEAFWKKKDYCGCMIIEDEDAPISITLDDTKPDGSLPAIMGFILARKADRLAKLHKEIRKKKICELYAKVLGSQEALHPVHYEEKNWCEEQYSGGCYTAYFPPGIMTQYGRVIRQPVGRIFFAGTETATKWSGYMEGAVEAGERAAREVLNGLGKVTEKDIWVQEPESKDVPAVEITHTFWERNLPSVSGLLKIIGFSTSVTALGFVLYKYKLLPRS
# [23] = biological target: T7, MAP kinase-activated protein kinase 5 (Homo sapiens, UniProt Q8IW41); test: Inhibition of PRAK (unknown origin)
# T7 sequence (Q8IW41 whole entry): T4 sequence (whole entry)
structure (smiles),measurement,setting,value
COc1cc2[nH]c(=O)c(C(=O)Nc3cc(C(=O)NCc4cccc(Cl)c4)ccc3C)cc2cc1CCCN1CCOCC1,EC50,[1],306 nM
CN(C)c1nc2c(Br)c(Br)c(Br)c(Br)c2[nH]1,IC50,[2],400 nM
CCOc1ccccc1CNc1nc(C)nc2[nH]cc(-c3ccnc(N)c3)c12,IC50,[3],10 nM
CC[C@H](CO)Nc1nc(NCc2ccccc2)n2ncc(C(C)C)c2n1,IC50,[4],1300 nM
COc1cc(-c2cc(=O)c3c(O)cc(O)c(C/C=C(\C)CCC=C(C)C)c3o2)ccc1O,IC50,[2],620 nM
same,IC50,[5],6400 nM
COc1ccc2c3ccnc(C)c3n(CC#N)c2c1,inhibition,[6],92%
same,IC50,[7],81 nM
Cc1cc(=O)oc2cc3cc(O)ccc3cc12,IC50,[8],32300 nM
COc1ccc(-n2cnc3ccc(-c4ccncc4)cc32)cc1,inhibition,[9],60 to 100%
O=C(O)c1ccc(-n2cnc3ccc(-c4ccncc4)cc32)cc1,inhibition,[9],60 to 100%
Brc1c(Br)c(Br)c2[nH]cnc2c1Br,IC50,[2],2100 nM
O=c1[nH]c(NCCO)nc2ccc3[nH]ncc3c12,IC50,[10],610 nM
CC(C)[C@H](CO)Nc1nc(Nc2cccc(Cl)c2)c2ncn(C(C)C)c2n1 [PURVALANOLA],IC50,[11],300 nM
COc1ccc(/C=C/C(=O)c2c(O)cc(OC)cc2OC)cc1,inhibition,[12],90%
same,inhibition,[13],91%
same,inhibition,[14],84%
N=C1NC(=O)/C(=C/c2ccc3c(c2)CCO3)S1,IC50,[15],24.1 nM
c1cc(-c2ccc3ncn(-c4ccc5[nH]cnc5c4)c3c2)ccn1,inhibition,[9],60 to 100%
Cc1nccc2c1[nH]c1cc(O)ccc12,IC50,[16],90 nM
COC(=O)c1ccc(-n2cnc3ccc(-c4ccncc4)cc32)cc1,inhibition,[9],60 to 100%
O=C1NC(Nc2ccccc2)=N/C1=C/c1ccc2c(c1)OCO2,IC50,[17],60 to 70 nM
same,IC50,[18],410 nM
N#Cc1ccc(-n2cnc3ccc(-c4ccncc4)cc32)cc1,inhibition,[9],60 to 100%
COc1ccc2c(c1)[nH]c1c(C)nccc12,inhibition,[6],> 60%
CN1C(=O)/C(=C\c2ccc3c(c2)OCO3)N=C1N,IC50,[19],910 nM
same,IC50,[20],490 nM
same,IC50,[21],100 nM
CS(=O)(=O)c1ccc(-n2cnc3ccc(-c4ccncc4)cc32)cc1,inhibition,[9],60 to 100%
NC(=O)c1ccc(-n2cnc3ccc(-c4ccncc4)cc32)cc1,inhibition,[9],60 to 100%
Cc1cc(=O)oc2cc3c([N+](=O)[O-])c(O)ccc3cc12,IC50,[8],370 nM
COc1ccc2c3ccnc(Cl)c3n(CC#N)c2c1,IC50,[22],> 10000 nM
same,inhibition,[6],90%
O=C(O[C@@H]1Cc2c(O)cc(O)cc2O[C@@H]1c1cc(O)c(O)c(O)c1)c1cc(O)c(O)c(O)c1 [EPIGALOCATECHIN GALLATE],IC50,[23],1000 nM

# From ChEMBL document CHEMBL4265878, “Dual-Specificity Tyrosine Phosphorylation-Regulated Kinase 1A (DYRK1A) Inhibitors as Potential Therapeutics” (J Med Chem, 2018)
